In the Kinase Knowledgebase extract (Sharma et al. 2016) one finds IC50 and inhibition data, which are given here for eleven molecules.

Values joined by “and” are separate entries in the source; they are usually repeats but may differ in a detail not shown here. Equal entries are not always repeated.

Chain of MAPK14 (Q16539 whole entry, looked up): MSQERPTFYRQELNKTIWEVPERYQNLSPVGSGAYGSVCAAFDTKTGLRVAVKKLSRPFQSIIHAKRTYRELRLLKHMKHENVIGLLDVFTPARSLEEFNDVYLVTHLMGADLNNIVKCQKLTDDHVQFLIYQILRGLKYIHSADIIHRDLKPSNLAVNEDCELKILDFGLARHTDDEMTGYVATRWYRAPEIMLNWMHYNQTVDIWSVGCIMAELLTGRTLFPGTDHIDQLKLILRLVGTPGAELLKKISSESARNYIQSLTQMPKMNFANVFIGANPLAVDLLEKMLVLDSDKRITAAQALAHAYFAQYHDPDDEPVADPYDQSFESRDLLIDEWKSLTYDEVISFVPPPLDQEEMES

One test addresses MAPK14 (UniProt Q16539). Kind of test: p38 alpha Kinase Inhibition Assay.
Settings: not given
In general, IC50 refers to the midpoint of a concentration-inhibition curve. `O=C(c1ccc2cc[nH]c2c1)N1CCN(Cc2ccccc2)CC1` returned a half-maximal inhibitory concentration (IC50) of 4970 to 5520 nM.
In the case of `O=C(c1ccc2ccn(C(=O)c3ccncc3)c2c1)N1CCC(Cc2ccccc2)CC1`, the IC50 was 505 nM.
Same read-out and setting: under `O=C(c1ccc2c(ccn2-c2ccncc2)c1)N1CCC(Cc2ccccc2)CC1` stands 800 nM.
On the same count and under the same terms, under `O=C(c1ccc2c(ccn2C(=O)c2ccncc2)c1)N1CCC(Cc2ccccc2)CC1` stands 405 to 871 nM; under `O=C(c1ccc2nc[nH]c2c1)N1C2CCC1CC(Cc1ccccc1)C2` (configuration not stated), 2150 nM; under `CCNCCCn1ccc2cc(C(=O)N3CCC(Cc4ccc(F)cc4)CC3)ccc21`, 354 nM.
On the same count and under the same terms, the result for `O=C(c1ccc2[nH]ccc2c1)N1CCC(Cc2ccccc2)CC1` reads 150 to 242 nM and 523 to 577 nM.
For `CCNCCCn1ccc2cc(C(=O)N3CCC(Cc4ccccc4)CC3)c(Cl)cc21`, the IC50 was 199 nM.

The same test, now with this note: concentration not given here.
A word on the inhibition: it is the change of the read-out against control, counted positive when it falls. A high value points to strong suppression. In the case of `O=C(c1ccc2cc[nH]c2c1)N1CCC(Cc2ccc(F)cc2)C1` (configuration not stated), the inhibition came to 51%.
Still for that read-out and setting: under `COc1cc2[nH]ccc2cc1C(=O)N1C2CCC1CC(Cc1ccccc1)C2` (configuration not stated) stands 63%.

In another test the target is EGFR (UniProt P00533).
Chain of EGFR (P00533 whole entry, looked up): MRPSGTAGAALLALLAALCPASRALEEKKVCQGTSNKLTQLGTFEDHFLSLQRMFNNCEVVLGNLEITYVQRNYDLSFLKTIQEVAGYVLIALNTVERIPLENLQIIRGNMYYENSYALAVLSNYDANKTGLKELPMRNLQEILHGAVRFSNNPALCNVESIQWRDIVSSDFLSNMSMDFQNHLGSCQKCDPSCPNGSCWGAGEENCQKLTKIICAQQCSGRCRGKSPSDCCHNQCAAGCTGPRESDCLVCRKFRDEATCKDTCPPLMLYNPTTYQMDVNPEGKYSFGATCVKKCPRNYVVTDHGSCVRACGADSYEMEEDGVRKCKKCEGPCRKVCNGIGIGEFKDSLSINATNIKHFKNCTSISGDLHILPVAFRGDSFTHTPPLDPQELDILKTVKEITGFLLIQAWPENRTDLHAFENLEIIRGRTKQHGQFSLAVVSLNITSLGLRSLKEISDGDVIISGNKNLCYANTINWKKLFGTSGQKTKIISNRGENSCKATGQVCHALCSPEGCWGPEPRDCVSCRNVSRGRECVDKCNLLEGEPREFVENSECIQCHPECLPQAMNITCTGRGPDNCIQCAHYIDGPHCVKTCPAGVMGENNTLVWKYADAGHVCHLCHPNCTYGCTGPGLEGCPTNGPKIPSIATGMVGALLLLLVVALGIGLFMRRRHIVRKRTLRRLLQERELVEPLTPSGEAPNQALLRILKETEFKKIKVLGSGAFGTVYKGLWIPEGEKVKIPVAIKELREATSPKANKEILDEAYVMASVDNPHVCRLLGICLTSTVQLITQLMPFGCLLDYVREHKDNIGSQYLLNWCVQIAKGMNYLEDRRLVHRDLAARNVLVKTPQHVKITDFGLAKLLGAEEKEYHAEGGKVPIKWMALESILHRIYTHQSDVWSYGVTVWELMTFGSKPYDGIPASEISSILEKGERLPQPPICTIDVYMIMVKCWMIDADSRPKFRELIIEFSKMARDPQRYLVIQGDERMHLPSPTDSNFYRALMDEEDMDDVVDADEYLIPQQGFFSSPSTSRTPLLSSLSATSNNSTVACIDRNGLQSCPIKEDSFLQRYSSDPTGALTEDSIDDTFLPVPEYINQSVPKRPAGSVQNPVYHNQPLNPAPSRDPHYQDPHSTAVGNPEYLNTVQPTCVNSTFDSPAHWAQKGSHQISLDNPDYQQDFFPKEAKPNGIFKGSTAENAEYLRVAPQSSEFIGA
Test: not given
Settings: not given
`O=C(c1ccc2cc[nH]c2c1)N1CCC(Cc2ccccc2)CC1`: the IC50 is more than 500 µM.
The molecule `O=C(c1ccc2[nH]ccc2c1)N1CCC(Cc2ccccc2)CC1` yielded an IC50 of more than 500 µM.
